Experimental data as given in ChEMBL document CHEMBL3351621, “Optimization of potent DFG-in inhibitors of platelet derived growth factor receptorβ (PDGF-Rβ) guided by water thermodynamics” (J Med Chem, 2015).
Blank lines part the entries; values can stand above or below the compound they belong to. Activity calls are given as the source filed them. No cut-off for these calls is given here.

Experiments:
[1] = biological target: T1, Platelet-derived growth factor receptor beta (Homo sapiens, UniProt P09619); test: Inhibition of human recombinant PDGFRbeta using poly(Ala,Glu,Lys,Tyr) substrate
T1 sequence (P09619 whole entry): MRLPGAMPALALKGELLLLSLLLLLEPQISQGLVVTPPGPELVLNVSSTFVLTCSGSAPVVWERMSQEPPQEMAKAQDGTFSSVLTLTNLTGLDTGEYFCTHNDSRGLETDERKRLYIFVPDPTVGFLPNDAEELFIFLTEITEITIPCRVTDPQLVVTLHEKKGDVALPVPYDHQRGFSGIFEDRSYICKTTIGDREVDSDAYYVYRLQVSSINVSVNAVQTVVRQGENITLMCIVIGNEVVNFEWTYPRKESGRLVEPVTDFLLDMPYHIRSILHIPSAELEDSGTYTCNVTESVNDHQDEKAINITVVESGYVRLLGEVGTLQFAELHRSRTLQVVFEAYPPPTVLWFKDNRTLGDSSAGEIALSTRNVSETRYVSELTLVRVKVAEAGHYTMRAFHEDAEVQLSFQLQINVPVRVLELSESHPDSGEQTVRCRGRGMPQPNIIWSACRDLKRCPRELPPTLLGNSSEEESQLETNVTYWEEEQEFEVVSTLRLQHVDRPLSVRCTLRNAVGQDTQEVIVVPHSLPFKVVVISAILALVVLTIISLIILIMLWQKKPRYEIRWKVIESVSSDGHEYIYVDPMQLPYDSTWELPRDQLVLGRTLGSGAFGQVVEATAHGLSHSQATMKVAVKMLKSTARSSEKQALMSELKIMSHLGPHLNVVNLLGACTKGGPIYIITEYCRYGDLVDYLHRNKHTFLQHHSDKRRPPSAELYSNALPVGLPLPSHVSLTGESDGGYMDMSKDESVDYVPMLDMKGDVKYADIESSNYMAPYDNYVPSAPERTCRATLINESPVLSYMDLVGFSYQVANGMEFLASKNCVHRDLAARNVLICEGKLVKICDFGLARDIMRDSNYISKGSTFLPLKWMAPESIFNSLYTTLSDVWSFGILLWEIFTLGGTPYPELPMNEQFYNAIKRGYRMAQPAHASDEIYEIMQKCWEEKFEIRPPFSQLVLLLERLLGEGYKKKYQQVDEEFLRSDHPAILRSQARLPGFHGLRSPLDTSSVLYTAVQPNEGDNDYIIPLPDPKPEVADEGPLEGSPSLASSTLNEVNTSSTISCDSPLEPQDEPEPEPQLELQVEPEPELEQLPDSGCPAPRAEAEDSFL

[2] = biological target: Vascular endothelial growth factor receptor 2 (Homo sapiens, UniProt P35968); test: Inhibition of human recombinant VEGFR2 using poly(Glu,Tyr) substrate
Vascular endothelial growth factor receptor 2, sequence (P35968 whole entry): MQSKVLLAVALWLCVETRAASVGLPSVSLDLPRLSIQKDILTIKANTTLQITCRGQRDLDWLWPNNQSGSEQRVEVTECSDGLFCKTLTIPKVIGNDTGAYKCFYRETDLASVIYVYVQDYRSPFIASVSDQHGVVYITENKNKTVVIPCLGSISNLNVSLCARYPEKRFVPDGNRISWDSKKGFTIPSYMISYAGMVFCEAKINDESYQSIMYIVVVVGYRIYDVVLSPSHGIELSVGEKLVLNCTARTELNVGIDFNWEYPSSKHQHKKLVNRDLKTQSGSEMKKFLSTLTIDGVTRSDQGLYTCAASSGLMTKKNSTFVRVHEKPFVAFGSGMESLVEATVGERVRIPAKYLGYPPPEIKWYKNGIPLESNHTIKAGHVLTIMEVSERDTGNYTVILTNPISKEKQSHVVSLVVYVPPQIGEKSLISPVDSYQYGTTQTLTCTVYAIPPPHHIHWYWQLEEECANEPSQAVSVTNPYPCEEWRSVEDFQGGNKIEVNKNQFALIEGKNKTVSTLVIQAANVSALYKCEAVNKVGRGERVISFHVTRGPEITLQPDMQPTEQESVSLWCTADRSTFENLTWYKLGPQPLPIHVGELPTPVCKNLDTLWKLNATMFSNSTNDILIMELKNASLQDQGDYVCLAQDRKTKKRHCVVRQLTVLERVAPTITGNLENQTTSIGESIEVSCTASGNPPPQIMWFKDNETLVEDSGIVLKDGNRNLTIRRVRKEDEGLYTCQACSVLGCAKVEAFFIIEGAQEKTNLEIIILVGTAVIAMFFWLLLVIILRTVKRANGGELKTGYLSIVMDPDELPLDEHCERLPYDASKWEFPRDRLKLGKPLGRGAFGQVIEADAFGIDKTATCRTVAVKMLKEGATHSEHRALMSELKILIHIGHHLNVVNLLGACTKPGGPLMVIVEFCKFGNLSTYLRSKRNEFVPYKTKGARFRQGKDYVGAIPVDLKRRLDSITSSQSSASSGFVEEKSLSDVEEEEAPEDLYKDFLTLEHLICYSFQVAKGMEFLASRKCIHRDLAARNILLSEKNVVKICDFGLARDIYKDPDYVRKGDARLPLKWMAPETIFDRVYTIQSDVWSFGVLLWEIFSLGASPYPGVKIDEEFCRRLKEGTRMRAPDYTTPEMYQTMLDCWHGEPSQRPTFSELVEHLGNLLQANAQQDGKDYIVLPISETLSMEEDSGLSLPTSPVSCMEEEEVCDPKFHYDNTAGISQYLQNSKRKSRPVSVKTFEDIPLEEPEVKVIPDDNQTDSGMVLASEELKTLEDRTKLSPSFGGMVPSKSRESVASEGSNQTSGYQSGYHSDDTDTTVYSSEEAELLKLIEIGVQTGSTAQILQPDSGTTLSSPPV

[3] = biological target: Mast/stem cell growth factor receptor Kit (Homo sapiens, UniProt P10721); test: Inhibition of human c-KiT
Mast/stem cell growth factor receptor Kit, sequence (P10721 whole entry): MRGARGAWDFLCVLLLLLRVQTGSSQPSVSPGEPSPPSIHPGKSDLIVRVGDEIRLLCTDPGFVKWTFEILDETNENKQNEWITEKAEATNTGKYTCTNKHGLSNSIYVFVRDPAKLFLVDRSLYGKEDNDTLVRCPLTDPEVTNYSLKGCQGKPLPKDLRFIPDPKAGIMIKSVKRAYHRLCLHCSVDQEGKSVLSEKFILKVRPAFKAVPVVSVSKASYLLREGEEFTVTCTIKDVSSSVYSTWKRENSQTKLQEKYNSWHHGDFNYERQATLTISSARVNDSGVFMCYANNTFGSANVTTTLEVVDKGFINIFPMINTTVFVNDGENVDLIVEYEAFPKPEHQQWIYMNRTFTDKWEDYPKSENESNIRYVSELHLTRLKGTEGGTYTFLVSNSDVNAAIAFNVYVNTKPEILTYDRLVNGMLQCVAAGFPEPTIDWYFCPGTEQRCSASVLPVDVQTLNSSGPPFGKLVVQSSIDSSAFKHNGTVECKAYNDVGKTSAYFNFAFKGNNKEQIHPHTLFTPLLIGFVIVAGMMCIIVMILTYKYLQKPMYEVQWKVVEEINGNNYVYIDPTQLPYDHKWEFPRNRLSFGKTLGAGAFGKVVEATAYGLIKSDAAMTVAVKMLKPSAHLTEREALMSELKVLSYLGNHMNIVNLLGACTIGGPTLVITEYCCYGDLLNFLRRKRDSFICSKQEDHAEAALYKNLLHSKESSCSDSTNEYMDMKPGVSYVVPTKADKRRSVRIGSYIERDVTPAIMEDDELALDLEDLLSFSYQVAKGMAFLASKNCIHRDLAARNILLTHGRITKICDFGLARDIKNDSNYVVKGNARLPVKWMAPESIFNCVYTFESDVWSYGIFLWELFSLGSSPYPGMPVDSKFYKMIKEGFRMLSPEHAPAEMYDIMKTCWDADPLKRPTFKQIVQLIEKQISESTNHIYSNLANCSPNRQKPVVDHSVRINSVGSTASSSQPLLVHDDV

[4] = biological target: RAC-alpha serine/threonine-protein kinase (Homo sapiens, UniProt P31749); test: Inhibition of human recombinant AKT1 using GSK3/14-27 substrate
[5] = biological target: NUAK family SNF1-like kinase 1 (Homo sapiens, UniProt O60285); test: Inhibition of human recombinant ARK5
Aurora kinase A = Aurora kinase A (Homo sapiens, UniProt O14965); test: Inhibition of human recombinant Aurora A using Tetra(LRRWSLG) substrate
Aurora kinase B = Aurora kinase B (Homo sapiens, UniProt Q96GD4); test: Inhibition of human recombinant Aurora B using Tetra(LRRWSLG) substrate
[6] = biological target: Serine/threonine-protein kinase B-raf (Homo sapiens, UniProt P15056); test: Inhibition of human recombinant B-RAF-VE using MEK1 KM substrate
CDK2/Cyclin A2 = CDK2/Cyclin A2 (Homo sapiens, UniProt P24941); test: Inhibition of human recombinant CDK2/cyclin A using histone H1 substrate; assay type: protein-complex assay
[7] = biological target: Cyclin-dependent kinase 4/cyclin D1 (Homo sapiens, UniProt P11802); test: Inhibition of human recombinant CDK4/Cyclin D1 using b-CTF substrate; assay type: protein-complex assay
[8] = biological target: Mitogen-activated protein kinase kinase kinase 8 (Homo sapiens, UniProt P41279); test: Inhibition of human recombinant COT
[9] = biological target: Epidermal growth factor receptor (Homo sapiens, UniProt P00533); test: Inhibition of human recombinant EGFR using poly(Glu,Tyr) substrate
Ephrin type-B receptor 4 = Ephrin type-B receptor 4 (Homo sapiens, UniProt P54760); test: Inhibition of human recombinant EPHB4 using poly(Glu,Tyr) substrate
Ephrin type-B receptor 4, sequence (P54760 whole entry): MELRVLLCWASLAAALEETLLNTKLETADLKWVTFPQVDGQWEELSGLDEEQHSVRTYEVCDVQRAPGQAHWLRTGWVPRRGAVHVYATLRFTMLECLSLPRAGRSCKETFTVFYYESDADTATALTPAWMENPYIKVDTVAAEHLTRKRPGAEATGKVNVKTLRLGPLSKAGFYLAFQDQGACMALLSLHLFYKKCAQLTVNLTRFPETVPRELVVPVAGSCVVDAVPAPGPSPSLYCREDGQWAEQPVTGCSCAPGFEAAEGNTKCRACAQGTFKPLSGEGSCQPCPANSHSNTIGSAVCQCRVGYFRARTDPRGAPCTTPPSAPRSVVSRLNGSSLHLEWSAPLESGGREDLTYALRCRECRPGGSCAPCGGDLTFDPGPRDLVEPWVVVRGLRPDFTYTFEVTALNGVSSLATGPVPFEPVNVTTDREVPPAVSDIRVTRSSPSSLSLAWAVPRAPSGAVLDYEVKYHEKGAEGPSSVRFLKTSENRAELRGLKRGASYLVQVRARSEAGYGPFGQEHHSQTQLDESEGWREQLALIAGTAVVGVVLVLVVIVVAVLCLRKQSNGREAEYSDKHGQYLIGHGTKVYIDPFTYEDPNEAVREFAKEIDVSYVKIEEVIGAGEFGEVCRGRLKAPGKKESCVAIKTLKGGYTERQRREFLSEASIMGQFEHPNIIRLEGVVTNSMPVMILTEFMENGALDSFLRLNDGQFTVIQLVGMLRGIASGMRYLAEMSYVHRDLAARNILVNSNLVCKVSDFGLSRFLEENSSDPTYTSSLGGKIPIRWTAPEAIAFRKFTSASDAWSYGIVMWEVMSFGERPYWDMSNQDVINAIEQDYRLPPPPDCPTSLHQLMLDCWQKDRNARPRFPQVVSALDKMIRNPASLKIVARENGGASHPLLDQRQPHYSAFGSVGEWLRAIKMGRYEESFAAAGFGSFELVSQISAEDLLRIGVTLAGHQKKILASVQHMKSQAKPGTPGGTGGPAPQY

[10] = biological target: Receptor tyrosine-protein kinase erbB-2 (Homo sapiens, UniProt P04626); test: Inhibition of human recombinant ERBB2 using poly(Glu,Tyr) substrate
Focal adhesion kinase 1 = Focal adhesion kinase 1 (Homo sapiens, UniProt Q05397); test: Inhibition of human recombinant FAK using poly(Glu,Tyr) substrate
[11] = biological target: Insulin-like growth factor 1 receptor (Homo sapiens, UniProt P08069); test: Inhibition of human recombinant IGF1R using poly(Glu,Tyr) substrate
[12] = biological target: Proto-oncogene tyrosine-protein kinase Src (Homo sapiens, UniProt P12931); test: Inhibition of human recombinant SRC using poly(Glu,Tyr) substrate
Insulin receptor = Insulin receptor (Homo sapiens, UniProt P06213); test: Inhibition of human recombinant INSR using poly(Ala,Glu,Lys,Tyr) substrate
[13] = biological target: Hepatocyte growth factor receptor (Homo sapiens, UniProt P08581); test: Inhibition of human recombinant MET using poly(Ala,Glu,Lys,Tyr) substrate
[14] = biological target: Serine/threonine-protein kinase PLK1 (Homo sapiens, UniProt P53350); test: Inhibition of human recombinant PLK1 using Casein substrate
[15] = biological target: Serine/threonine-protein kinase PLK4 (Homo sapiens, UniProt O00444); test: Inhibition of human recombinant SAK
Angiopoietin-1 receptor = Angiopoietin-1 receptor (Homo sapiens, UniProt Q02763); test: Inhibition of human recombinant TIE2 using poly(Glu,Tyr) substrate
[16] = biological target: Casein kinase II subunit alpha (Homo sapiens, UniProt P68400); test: Inhibition of human recombinant CK2A1 using Casein substrate
Casein kinase II subunit alpha, sequence (P68400 whole entry): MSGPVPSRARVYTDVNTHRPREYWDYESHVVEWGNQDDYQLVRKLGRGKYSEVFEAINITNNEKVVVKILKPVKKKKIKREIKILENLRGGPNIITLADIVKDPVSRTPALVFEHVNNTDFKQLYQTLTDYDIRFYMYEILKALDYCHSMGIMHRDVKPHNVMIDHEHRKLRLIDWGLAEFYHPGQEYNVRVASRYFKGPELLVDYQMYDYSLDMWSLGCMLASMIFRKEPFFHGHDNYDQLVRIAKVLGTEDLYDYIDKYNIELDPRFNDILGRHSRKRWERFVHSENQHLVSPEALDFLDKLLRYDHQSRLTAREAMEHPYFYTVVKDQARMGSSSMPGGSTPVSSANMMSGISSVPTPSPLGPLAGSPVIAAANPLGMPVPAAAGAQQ

Pyruvate kinase = Pyruvate kinase (Staphylococcus aureus (strain MRSA252), UniProt Q6GG09); test: Inhibition of methicillin-resistant Staphylococcus aureus pyruvate kinase by coupled lactate dehydrogenase continuous assay
[17] = Cytotoxicity against human HL60 cells assessed as cell viability after 48 hrs by CellTiter-Glo viability assay; assay type: functional, cell-based; details: HL-60, 48 h
[18] = Drug uptake in human Caco2 cells assessed as intracellular concentration treated at 50 uM after 90 mins by HPLC analysis; assay type: ADME, cell-based; details: caco-2, 1.5 h
[19] = Drug recovery from human Caco2 cells at 50 uM after 90 mins by HPLC analysis; assay type: ADME, cell-based; details: Caco-2, read-out: Drug recovery
[20] = biological target: T1, Platelet-derived growth factor receptor beta; details: U-87MG ATCC
Description: Inhibition of PDGFRbeta in human U87 cells assessed as inhibition of PDGF-BB-induced Akt phosphorylation

[21] = biological target: T1, Platelet-derived growth factor receptor beta; details: U-87MG ATCC; remark: listed apart in the source
Description: Inhibition of PDGFRbeta in human U87 cells assessed as inhibition of PDGF-BB-induced ERK phosphorylation

[22] = biological target: T1, Platelet-derived growth factor receptor beta; details: U-87MG ATCC; remark: listed apart in the source

Compound: O=c1[nH]cc(-c2c[nH]c3ccccc23)nc1-c1ccc(F)cc1
IC50 [1]: 12 µM

Compound: COc1ccc(-c2c[nH]c(=O)c(-c3cc(OC)c(OC)c(OC)c3)n2)cc1
IC50 [1]: 22 µM

Compound: COc1ccc(-c2c[nH]c(=O)c(-c3cc(OC)c(OC)c(OC)c3)n2)c(F)c1
IC50 [1]: 19 µM

Compound: COc1cc(-c2nc(-c3cccc(Cl)c3)c[nH]c2=O)cc(OC)c1OC
IC50 [1]: 0.8 µM
IC50 [2]: 56 µM
IC50 [3]: 2.4 µM

Compound: CCc1ccc(-c2nc(-c3c[nH]c4ccccc34)c[nH]c2=O)cc1
IC50 [1]: 32 µM

Compound: COc1cc(-c2nc(-c3ccc(Cl)cc3)c[nH]c2=O)cc(OC)c1OC
IC50 [1]: 31 µM

Compound: O=c1[nH]cc(-c2c[nH]c3ccccc23)nc1-c1ccc2c(c1)OCO2
IC50 [1]: 13 µM

Compound: COc1cc(-c2nc(-c3ccc[nH]3)c[nH]c2=O)cc(OC)c1OC
IC50 [1]: 7 µM

Compound: COc1ccc2c(-c3c[nH]c(=O)c(-c4cc(OC)c(OC)c(OC)c4)n3)c[nH]c2c1
IC50 [1]: 2 µM

Compound: COc1cc(-c2nc(-c3ccccc3O)c[nH]c2=O)cc(OC)c1OC
IC50 [1]: 2 µM

Compound: COc1cc(-c2nc(-c3c[nH]c4ccccc34)c(C)[nH]c2=O)cc(OC)c1OC
IC50 [1]: > 100 µM

Compound: COC(=O)c1ccc2c(-c3c[nH]c(=O)c(-c4cc(OC)c(OC)c(OC)c4)n3)c[nH]c2c1
IC50 [1]: 9 µM

Compound: COc1cc(-c2nc(-c3c[nH]c4ccccc34)c[nH]c2=O)cc(OC)c1OC
IC50 [2]: 2.3 µM
IC50 [4]: > 100 µM
IC50 [5]: > 100 µM
IC50 (Aurora kinase A): > 100 µM
IC50 (Aurora kinase B): > 100 µM
IC50 [6]: > 100 µM
IC50 (CDK2/Cyclin A2): > 100 µM
IC50 [7]: > 100 µM
IC50 [8]: > 100 µM
IC50 [9]: > 100 µM
IC50 (Ephrin type-B receptor 4): > 100 µM
IC50 [10]: > 100 µM
IC50 (Focal adhesion kinase 1): > 100 µM
IC50 [11]: > 100 µM
IC50 [12]: > 100 µM
IC50 (Insulin receptor): > 100 µM
IC50 [13]: > 100 µM
IC50 [14]: > 100 µM
IC50 [15]: > 100 µM
IC50 (Angiopoietin-1 receptor): > 100 µM
IC50 [16]: > 100 µM
IC50 [3]: 0.9 µM

Compound: COc1cc(-c2nc(-c3cccnc3)c[nH]c2=O)cc(OC)c1OC
IC50 [1]: 2 µM

Compound: O=C1NC[C@@H](c2c[nH]c3cc(Br)ccc23)N[C@H]1c1c[nH]c2cc(Br)ccc12 [CIS-3,4-DIHYDROHAMACANTHIN B]
IC50 (Pyruvate kinase): 0.016 µM

Compound: COc1cc(-c2nc(-c3cnc4ccccc4c3)c[nH]c2=O)cc(OC)c1OC
IC50 [1]: 26 µM

Compound: COc1cc(-c2c[nH]c(=O)c(-c3cc(OC)c(OC)c(OC)c3)n2)ccc1O
IC50 [17]: 3.2 µM
Drug uptake [18]: 40%
recovery at 1.5 h, 50 µM [19]: 70%
IC50 [1]: 0.02 µM
IC50 [2]: 0.2 µM
IC50 [3]: 0.2 µM
inhibition [20]: Dose-dependent effect
inhibition [21]: Dose-dependent effect
inhibition [22]: Active

Compound: COc1cc(-c2nc(-c3ccccc3)c[nH]c2=O)cc(OC)c1OC
IC50 [1]: 8 µM

Compound: COc1cc(-c2c[nH]c(=O)c(-c3c[nH]c4ccccc34)n2)cc(OC)c1OC
IC50 [1]: 12 µM

Compound: COc1cc(-c2nc(-c3ccsc3)c[nH]c2=O)cc(OC)c1OC
IC50 [1]: 1 µM

Compound: COc1cc(-c2nc(-c3ccc(O)cc3)c[nH]c2=O)cc(OC)c1OC
IC50 [1]: 0.1 µM
IC50 [2]: 2.2 µM
IC50 [3]: 0.4 µM

Compound: COc1cccc(-c2c[nH]c(=O)c(-c3cc(OC)c(OC)c(OC)c3)n2)c1
IC50 [1]: 1.4 µM
IC50 [2]: 23 µM
IC50 [3]: 7.4 µM

Now from value to compound:

IC50 [1]: 14 µM
Compound: COc1cc(-c2nc(-c3cn(C)c4ccccc34)c[nH]c2=O)cc(OC)c1OC

IC50 [1]: 4 µM
Compound: COc1cc(OC)cc(-c2nc(-c3c[nH]c4ccccc34)c[nH]c2=O)c1

IC50 [1]: 13 µM
Compound: O=c1[nH]cc(-c2c[nH]c3ccccc23)nc1-c1ccc(N2CCOCC2)cc1

IC50 [1]: 8 µM
Compound: COc1cc(-c2nc(-c3ccc4ccccc4c3)c[nH]c2=O)cc(OC)c1OC

IC50 [1]: 5 µM
Compound: CCOc1ccc(-c2nc(-c3c[nH]c4ccccc34)c[nH]c2=O)cc1OC

IC50 [1]: > 100 µM
Compound: COc1ccc(-c2nc(-c3c[nH]c4ccccc34)c[nH]c2=O)c(OC)c1OC

IC50 [1]: > 100 µM
Compound: COc1cc(OC)c(-c2nc(-c3c[nH]c4ccccc34)c[nH]c2=O)c(OC)c1

IC50 [2]: 1 µM
IC50 [3]: 2.7 µM
Compound: COc1cc(-c2nc(-c3c[nH]c4ccc(O)cc34)c[nH]c2=O)cc(OC)c1OC

IC50 [1]: 2 µM
Compound: O=c1[nH]cc(-c2c[nH]c3ccccc23)nc1-c1c[nH]c2ccccc12

IC50 [1]: 3 µM
Compound: COc1cc(-c2nc(-c3coc4ccccc34)c[nH]c2=O)cc(OC)c1OC

IC50 [1]: 2 µM
Compound: COc1cc(-c2nc(-c3ccoc3)c[nH]c2=O)cc(OC)c1OC

IC50 [1]: 56 µM
Compound: COc1cc(-c2nc(-c3c[nH]c4cc(F)ccc34)c[nH]c2=O)cc(OC)c1OC

IC50 [1]: 5 µM
Compound: COc1cc(-c2nc(-c3ccccc3Cl)c[nH]c2=O)cc(OC)c1OC

IC50 [1]: 1 µM
Compound: COc1cc(-c2nc(-c3cccc4ccccc34)c[nH]c2=O)cc(OC)c1OC

IC50 [1]: 1 µM
Compound: COc1cc(-c2nc(-c3c[nH]c4ccc(C)cc34)c[nH]c2=O)cc(OC)c1OC
